Measured values reported in US20100029702A1, “Method For Identification of Compound Having Anti-Anxiety Effect” (priority 2006, published 2010).

System: CHO-K1 cell strain
Assay: Changes in intracellular Ca2+ concentration in CHO-K1 host cell not transfected (negative control)
Assay type: cell-based, Chinese hamster
Description: The specific method for measuring changes in the intracellular Ca^2+ concentration in the HA-ph01207#10-6 cell strain induced by CCK-8S (SEQ ID NO: 14) and the results are described below. The HA-ph01207#10-6 cell strain was seeded on a 96-well plate (a plate with a black wall and a transparent bottom) at a cell count of 2×10^4/100 μL medium/well and cultured at 37° C. in the presence of 5% CO2. As a medium, DMEM/F12 (Gibco) containing 10% fetal calf serum (Moregate) was used. On the following day, 50 μL of the medium was removed from each well, 50 μL of a loading buffer was added to each well, and the mixture was reacted at room temperature for 1.5 h, so that a fluorescent dye contained in the loading buffer should be taken up into the cell. The loading buffer was prepared by dissolving component A of the FLIPR Calcium 3 Assay Kit (Molecular Device) in a solution obtained by adding 0.1 mL of 500 mM probenecid (Sigma) to 9.9 mL of component B. After reaction, changes over time in the fluorescence intensity in each well after addition of CCK-8S (Peptide Institute, Inc.) were measured using the FLEX station (Molecular Device). Furthermore, similar measurement was performed for CCK-8NS (Peptide Institute, Inc.) and CCK-4 (Peptide Institute, Inc.). 0.52 mg of CCK-8S (SEQ ID NO: 14) was dissolved in 4.5 mL of 1% NaHCO3 (Wako) to prepare a solution having 0.1 mM concentration. 0.53 mg of CCK-8NS was dissolved in 0.50 mL of dimethyl sulfoxide (DMSO, Sigma), and then 4.50 mL of redistilled water H2O was added to prepare a solution having 0.1 mM concentration. 0.54 mg of CCK-4 was dissolved in 0.46 mL of DMSO, 4.09 mL of redistilled water was added to prepare a solution having 0.2 mM concentration. CCK-8S (SEQ ID NO: 14), CCK-8NS, and CCK-4 were diluted in phosphate-buffered physiological saline (PBS) to prepare 5 nM solutions, and 25 μL each was added (final concentration 1 nM) to perform measurement. As a positive control for including an increase in the intracellular Ca^2+ concentration, A23187 (Calbiochem) was used at a final concentration of 10 μM. As a negative control, the CHO-K1 cell strain used to prepare the HA-ph01207#10-6 cell strain as a host was used. Since the CHO-K1 cell strain was not transfected with the ph01207-expressing vector, the ph01207 gene product was not expressed.
Changes in the intracellular calcium (Ca^2+) concentration induced by CCK-8S were measured by a method similar to the method described in Example 5 using the 7tmHR stably-expressing strain and the hk01941 stably-expressing strain prepared in Example 7. As a control, a host cell not transfected with the 7tmHR-expressing vector or the hk01941-expressing vector was also used.
Cells were seeded in a 96-well plate (a plate with a black wall and a transparent bottom) at a cell count of 3×10^4/100 μL of medium/well and cultured overnight at 37° C. in a 5% CO2 incubator. On the following day, 50 μL of the medium was removed from each well, […] of a loading buffer was added to each well, and the mixture was reacted at room temperature for 1 h, so that a fluorescent dye contained in the loading buffer was taken up into the cell. The loading buffer was prepared by a method similar to the method described in Example 5. After reaction, changes over time in the fluorescence intensity in each well after addition of CCK-8S were measured using the FLEX station (Molecular Device). CCK-8S was used at a final concentration of 10 pM to 1 μM. Furthermore, as a positive control of the assay, A23187 was used at a final concentration of 20 μM.
Cells were seeded in a 96-well plate (a plate with a black wall and a transparent bottom) at a cell count of 3×10^4/100 μL of medium/well and cultured overnight at 37° C. in a 5% CO2 incubator. […]

Compound	Change in intracellular Ca2+ concentration (fluorescence intensity) (CHO-K1 not transfected, A23187 10 μM (Example 5))	Change in intracellular Ca2+ concentration (fluorescence intensity) (host cell CHO-K1 not transfected, A23187 20 μM (Examples 8, 9))	Change in intracellular Ca2+ concentration (fluorescence intensity) (CHO-K1 not transfected, peptide 1 nM (Example 5))	Change in intracellular calcium concentration after addition of CCK-8S (host cell not transfected with the expressing vector (Examples 8, 9))
CNc1ccc2oc(C[C@H]3O[C@@]4(CC[C@H]3C)O[C@H]([C@H](C)C(=O)c3ccc[nH]3)[C@H](C)C[C@H]4C)nc2c1C(=O)O [A23187]	increased	increased		
cholecystokinin octapeptide sulfated form [CCK-8S]			not increased	no change
